Source: paper PMC10818931, “In Vitro Evaluation of Drug–Drug Interaction Potential of Epetraborole, a Novel Bacterial Leucyl-tRNA Synthetase Inhibitor” (Pharmaceuticals, 2024)

Experiments:
Assay in all cases: Substrate potential in transporter-transfected MDCK cells
Assay type in all cases: in vitro ADME
MATE2K = target: T1, MATE2K (Homo sapiens, UniProt Q86VL8)
T1 construct: host or cells: MDCK
Procedure: (§1) The uptake of a probe substrate of each transporter was conducted in parallel with the test article in separate wells of the same batch of vector control and transporter-transfected cells. Cells were incubated at 37 °C with 5% CO2 with 500 μL of dosing solution for different periods of time.

OAT1 = target: T2, OAT1 (Homo sapiens, UniProt Q4U2R8)
T2 construct: host or cells: MDCK
T2 sequence (Q4U2R8 1-563): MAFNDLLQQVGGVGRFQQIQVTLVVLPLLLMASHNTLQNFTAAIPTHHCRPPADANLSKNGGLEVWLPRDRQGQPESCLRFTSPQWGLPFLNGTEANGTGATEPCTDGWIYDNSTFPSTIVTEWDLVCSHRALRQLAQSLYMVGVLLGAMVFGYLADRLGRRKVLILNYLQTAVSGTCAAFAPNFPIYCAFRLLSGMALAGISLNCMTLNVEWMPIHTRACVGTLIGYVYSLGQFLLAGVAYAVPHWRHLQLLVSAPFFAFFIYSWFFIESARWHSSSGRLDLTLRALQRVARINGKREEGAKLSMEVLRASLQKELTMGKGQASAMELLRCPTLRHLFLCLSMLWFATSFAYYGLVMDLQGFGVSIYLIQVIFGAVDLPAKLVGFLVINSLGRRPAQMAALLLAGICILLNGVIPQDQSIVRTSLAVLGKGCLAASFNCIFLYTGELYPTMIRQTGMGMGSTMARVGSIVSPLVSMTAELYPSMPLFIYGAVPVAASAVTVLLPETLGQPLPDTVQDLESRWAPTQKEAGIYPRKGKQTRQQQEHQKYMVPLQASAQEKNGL
Procedure: as §1

OAT3 = target: T3, OAT3 (Homo sapiens, UniProt Q8TCC7)
T3 construct: host or cells: MDCK
T3 sequence (Q8TCC7 1-542): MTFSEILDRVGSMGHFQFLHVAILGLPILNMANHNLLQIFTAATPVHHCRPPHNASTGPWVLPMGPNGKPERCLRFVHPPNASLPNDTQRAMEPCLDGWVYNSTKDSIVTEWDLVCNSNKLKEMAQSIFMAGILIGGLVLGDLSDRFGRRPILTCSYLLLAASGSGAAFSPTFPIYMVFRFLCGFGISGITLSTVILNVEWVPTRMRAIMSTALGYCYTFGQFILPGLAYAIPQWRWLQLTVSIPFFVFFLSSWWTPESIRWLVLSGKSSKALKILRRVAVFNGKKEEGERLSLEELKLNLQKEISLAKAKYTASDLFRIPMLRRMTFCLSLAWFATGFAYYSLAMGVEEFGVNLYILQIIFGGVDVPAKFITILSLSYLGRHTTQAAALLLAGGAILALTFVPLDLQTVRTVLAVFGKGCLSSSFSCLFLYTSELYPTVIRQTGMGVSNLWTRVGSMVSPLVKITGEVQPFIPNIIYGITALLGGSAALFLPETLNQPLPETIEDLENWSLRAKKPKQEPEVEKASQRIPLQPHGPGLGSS
Procedure: as §1

OATP1B3 = target: T4, OATP1B3 (Homo sapiens, UniProt Q9NPD5)
T4 construct: host or cells: MDCK
T4 sequence (Q9NPD5 1-702): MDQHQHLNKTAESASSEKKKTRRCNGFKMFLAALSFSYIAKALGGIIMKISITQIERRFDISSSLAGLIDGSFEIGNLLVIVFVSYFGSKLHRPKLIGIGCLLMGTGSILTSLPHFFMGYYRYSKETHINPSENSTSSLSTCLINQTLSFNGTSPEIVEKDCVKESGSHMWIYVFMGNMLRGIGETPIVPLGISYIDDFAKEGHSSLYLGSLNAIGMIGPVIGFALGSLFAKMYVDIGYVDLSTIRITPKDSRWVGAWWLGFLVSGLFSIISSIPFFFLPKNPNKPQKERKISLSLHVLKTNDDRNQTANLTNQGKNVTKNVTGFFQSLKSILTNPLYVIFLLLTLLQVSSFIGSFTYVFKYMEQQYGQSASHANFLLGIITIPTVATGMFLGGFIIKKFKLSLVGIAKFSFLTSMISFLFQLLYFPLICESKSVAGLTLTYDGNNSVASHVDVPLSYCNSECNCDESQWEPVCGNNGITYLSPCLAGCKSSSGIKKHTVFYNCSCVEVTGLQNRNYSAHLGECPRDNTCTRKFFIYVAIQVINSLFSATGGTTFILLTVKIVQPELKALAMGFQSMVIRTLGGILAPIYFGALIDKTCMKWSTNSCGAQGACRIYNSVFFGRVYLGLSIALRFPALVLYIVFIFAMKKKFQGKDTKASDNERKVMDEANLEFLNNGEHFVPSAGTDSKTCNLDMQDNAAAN
Procedure: as §1

OCT2 = target: T5, OCT2 (Homo sapiens, UniProt O15244)
T5 construct: host or cells: MDCK
T5 sequence (O15244 1-555): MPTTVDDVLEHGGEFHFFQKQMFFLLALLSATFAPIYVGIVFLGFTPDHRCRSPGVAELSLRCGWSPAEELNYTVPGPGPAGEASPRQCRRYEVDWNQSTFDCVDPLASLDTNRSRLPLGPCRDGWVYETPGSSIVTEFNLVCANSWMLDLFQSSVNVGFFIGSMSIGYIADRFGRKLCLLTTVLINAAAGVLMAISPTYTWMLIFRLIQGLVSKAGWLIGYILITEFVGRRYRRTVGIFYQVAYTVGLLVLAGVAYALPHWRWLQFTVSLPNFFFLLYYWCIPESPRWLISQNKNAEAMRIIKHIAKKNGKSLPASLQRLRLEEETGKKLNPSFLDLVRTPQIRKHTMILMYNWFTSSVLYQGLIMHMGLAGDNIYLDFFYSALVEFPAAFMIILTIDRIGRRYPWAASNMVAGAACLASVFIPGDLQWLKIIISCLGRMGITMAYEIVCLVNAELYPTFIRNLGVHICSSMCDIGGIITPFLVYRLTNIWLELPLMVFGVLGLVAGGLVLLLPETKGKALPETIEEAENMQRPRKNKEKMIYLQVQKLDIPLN
Procedure: as §1

T1 sequence (Q86VL8 1-566 isoform Q86VL8-3): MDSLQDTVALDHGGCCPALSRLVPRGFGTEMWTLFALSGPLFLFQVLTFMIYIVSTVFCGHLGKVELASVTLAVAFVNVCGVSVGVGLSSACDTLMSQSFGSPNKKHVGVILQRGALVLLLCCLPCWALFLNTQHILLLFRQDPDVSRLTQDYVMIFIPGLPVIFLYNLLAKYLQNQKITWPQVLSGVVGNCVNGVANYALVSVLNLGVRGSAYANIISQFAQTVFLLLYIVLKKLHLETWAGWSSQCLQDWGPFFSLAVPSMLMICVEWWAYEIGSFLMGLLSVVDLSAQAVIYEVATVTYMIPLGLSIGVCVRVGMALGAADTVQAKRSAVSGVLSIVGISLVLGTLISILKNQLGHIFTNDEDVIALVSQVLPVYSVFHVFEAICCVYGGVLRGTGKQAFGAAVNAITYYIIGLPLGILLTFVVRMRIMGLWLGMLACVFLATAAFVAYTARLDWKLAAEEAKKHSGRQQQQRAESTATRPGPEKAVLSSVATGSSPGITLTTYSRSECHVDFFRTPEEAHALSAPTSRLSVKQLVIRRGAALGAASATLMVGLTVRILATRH

SMILES: NC[C@H]1OB(O)c2c(OCCCO)cccc21 [EBO, Epetraborole]
- Influx ratio (MATE2K): < 2
- as a Substrate (MATE2K): No
- Influx ratio (OAT1): < 2
- as a Substrate (OAT1): No
- Influx ratio (OAT3): < 2
- as a Substrate (OAT3): No
- Influx ratio (OATP1B3): < 2
- as a Substrate (OATP1B3): No
- as a Substrate (OCT2): could potentially be a substrate and Yes
- Influx ratio (OCT2; 5 µM): 3.44

SMILES: NC[C@H]1OB(O)c2c(OCCC(=O)O)cccc21 [M3]
- Influx ratio (MATE2K): < 2
- as a Substrate (MATE2K): No
- Influx ratio (OAT1): < 2
- as a Substrate (OAT1): No
- Influx ratio (OAT3): < 2
- as a Substrate (OAT3): No
- Influx ratio (OATP1B3): < 2
- as a Substrate (OATP1B3): No
- as a Substrate (OCT2): not a substrate and No
